Results: US7880007B2, “Bicyclic substituted phenyl piperidine modulators of muscarinic receptors” (Vertex Pharmaceuticals Incorporated, priority 2004, dated 2011)

Experiments:
Assay type in all cases: cell-based
M4 muscarinic receptor = biological target: T1, M4 muscarinic receptor (Homo sapiens, UniProt P08173); assay: Functional mobilization of intracellular calcium (FLIPR), M4-CHO cells; conditions: for Emax: 100% efficacy = maximum response obtained with the Carbachol control; for M4 Activity: M4-CHO cells, calcium mobilization (FLIPR)
T1 construct: expressed in transfected cells; host or cells: CHO (M4-CHO)
T1 sequence (P08173 1-479): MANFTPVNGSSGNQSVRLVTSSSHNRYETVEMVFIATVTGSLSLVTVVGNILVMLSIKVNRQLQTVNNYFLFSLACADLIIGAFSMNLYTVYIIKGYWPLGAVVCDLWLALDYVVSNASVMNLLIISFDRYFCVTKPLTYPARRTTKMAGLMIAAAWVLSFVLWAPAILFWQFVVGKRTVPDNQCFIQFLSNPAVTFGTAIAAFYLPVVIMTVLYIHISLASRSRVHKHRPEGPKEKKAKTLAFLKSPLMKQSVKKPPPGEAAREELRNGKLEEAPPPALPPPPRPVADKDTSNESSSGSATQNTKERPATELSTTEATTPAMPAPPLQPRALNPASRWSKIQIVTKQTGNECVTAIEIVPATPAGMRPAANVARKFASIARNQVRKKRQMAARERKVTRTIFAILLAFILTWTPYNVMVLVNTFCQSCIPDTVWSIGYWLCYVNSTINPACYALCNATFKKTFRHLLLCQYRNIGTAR
Summary of the method: (§1)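 Calcium mobilisation read by FLIPR over 60 s (ex 488/em 540 nm) in recombinant muscarinic CHO lines loaded with calcium dye plus 1 mM probenecid. Compounds tested as agonists alone, or as inhibitors against EC80 carbachol after 15 min pre-incubation or co-addition; 0.5% DMSO; efficacy scaled to carbachol maximal response.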

M2 muscarinic receptor = biological target: T2, M2 muscarinic receptor (Homo sapiens, UniProt P08172); assay: Functional mobilization of intracellular calcium (FLIPR), M2-CHO cells; conditions: for Emax: 100% efficacy = maximum response obtained with the Carbachol control; for M2 Activity: M2-CHO cells, calcium mobilization (FLIPR)
T2 construct: expressed in transfected cells; host or cells: CHO (M2-CHO)
T2 sequence (P08172 1-466): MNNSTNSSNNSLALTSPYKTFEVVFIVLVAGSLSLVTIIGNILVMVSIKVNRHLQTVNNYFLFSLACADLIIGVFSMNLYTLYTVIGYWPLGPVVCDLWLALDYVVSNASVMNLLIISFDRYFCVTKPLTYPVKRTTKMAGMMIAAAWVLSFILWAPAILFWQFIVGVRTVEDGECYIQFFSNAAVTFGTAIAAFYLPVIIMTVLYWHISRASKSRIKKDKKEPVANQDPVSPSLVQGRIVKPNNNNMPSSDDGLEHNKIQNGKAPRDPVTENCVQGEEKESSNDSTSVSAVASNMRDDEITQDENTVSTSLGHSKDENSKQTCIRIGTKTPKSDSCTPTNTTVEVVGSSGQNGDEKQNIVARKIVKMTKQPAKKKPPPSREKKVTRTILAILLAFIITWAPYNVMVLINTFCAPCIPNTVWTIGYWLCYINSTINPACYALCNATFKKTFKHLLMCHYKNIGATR
Summary of the method: as §1

M1 muscarinic receptor = biological target: T3, M1 muscarinic receptor (Homo sapiens, UniProt P11229); assay: Functional mobilization of intracellular calcium (FLIPR), M1-CHO cells; conditions: for Emax: 100% efficacy = maximum response obtained with the Carbachol control; for M1 Activity: M1-CHO cells, calcium mobilization (FLIPR)
T3 construct: expressed in transfected cells; host or cells: CHO (M1-CHO)
T3 sequence (P11229 1-460): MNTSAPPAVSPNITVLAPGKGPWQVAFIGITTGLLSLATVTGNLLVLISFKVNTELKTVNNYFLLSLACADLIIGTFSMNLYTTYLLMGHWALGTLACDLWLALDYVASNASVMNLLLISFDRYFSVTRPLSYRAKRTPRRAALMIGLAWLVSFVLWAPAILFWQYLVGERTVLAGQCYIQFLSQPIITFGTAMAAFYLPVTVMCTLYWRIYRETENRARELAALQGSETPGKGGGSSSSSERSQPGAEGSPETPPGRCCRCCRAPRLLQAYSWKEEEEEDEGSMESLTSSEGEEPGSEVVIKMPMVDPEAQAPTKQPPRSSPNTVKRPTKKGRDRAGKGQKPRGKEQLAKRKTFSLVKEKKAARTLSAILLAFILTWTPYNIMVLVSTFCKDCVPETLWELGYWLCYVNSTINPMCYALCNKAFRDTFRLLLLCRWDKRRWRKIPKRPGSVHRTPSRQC
Summary of the method: as §1

M3 muscarinic receptor = biological target: T4, M3 muscarinic receptor (Homo sapiens, UniProt P20309); assay: Functional mobilization of intracellular calcium (FLIPR), M3-CHO cells; conditions: for Emax: 100% efficacy = maximum response obtained with the Carbachol control; for M3 Activity: M3-CHO cells, calcium mobilization (FLIPR)
T4 construct: expressed in transfected cells; host or cells: CHO (M3-CHO)
Summary of the method: as §1

T4 sequence (P20309 whole entry): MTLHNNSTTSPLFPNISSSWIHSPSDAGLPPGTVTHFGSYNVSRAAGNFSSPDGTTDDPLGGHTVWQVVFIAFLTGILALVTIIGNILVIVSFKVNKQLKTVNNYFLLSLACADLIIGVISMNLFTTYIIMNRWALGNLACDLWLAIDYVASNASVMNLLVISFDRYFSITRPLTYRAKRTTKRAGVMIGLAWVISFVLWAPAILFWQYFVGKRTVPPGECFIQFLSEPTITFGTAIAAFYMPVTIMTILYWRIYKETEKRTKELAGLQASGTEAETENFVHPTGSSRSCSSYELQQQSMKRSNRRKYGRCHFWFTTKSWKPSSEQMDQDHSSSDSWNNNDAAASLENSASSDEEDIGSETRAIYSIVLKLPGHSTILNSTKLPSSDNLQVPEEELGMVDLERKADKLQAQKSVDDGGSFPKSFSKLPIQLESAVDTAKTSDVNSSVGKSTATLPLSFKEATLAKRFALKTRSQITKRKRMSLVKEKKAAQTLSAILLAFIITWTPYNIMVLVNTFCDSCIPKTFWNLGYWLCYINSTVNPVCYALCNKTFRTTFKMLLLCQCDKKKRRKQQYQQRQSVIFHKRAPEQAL

Emax (M4 muscarinic receptor) [%]	Emax (M2 muscarinic receptor) [%]	Emax (M1 muscarinic receptor) [%]	Emax (M3 muscarinic receptor) [%]	Structure (SMILES)	M4 Activity (M4 muscarinic receptor)	M2 Activity (M2 muscarinic receptor)	M1 Activity (M1 muscarinic receptor)	M3 Activity (M3 muscarinic receptor)
25 to 100	25 to 100	25 to 100	< 25	COc1ccc(Cl)cc1C1(F)CCN([C@@H]2C[C@H]3CC[C@H]2C3)CC1 [Compound 309]	++ (activity was measured to be from 1.0 μM to 5.0 μM)	++ (activity was measured to be from 1.0 μM to 5.0 μM)	+ (activity was measured to be greater than 5.0 μM)	+ (activity was measured to be greater than 5.0 μM)
< 25	< 25	< 25	< 25	COc1ccc(-c2ccc(C(=O)Nc3nccs3)cc2)cc1C1CCN(C2CC3CCC(C3)C2)CC1 (stereo not shown) [Compound 313]	+ (activity was measured to be greater than 5.0 μM)	+ (activity was measured to be greater than 5.0 μM)	+ (activity was measured to be greater than 5.0 μM)	+ (activity was measured to be greater than 5.0 μM)
25 to 100	< 25	< 25	< 25	COc1ccc(-c2cccc(F)c2F)cc1C1CCN([C@@H]2C[C@H]3CC[C@H]2C3)CC1 [Compound 318]	+ (activity was measured to be greater than 5.0 μM)	+ (activity was measured to be greater than 5.0 μM)	+ (activity was measured to be greater than 5.0 μM)	+ (activity was measured to be greater than 5.0 μM)

The next lines start with the compound.

Structure (SMILES)	Emax (M4 muscarinic receptor) [%]	Emax (M2 muscarinic receptor) [%]	Emax (M1 muscarinic receptor) [%]	Emax (M3 muscarinic receptor) [%]	M4 Activity (M4 muscarinic receptor)	M2 Activity (M2 muscarinic receptor)	M1 Activity (M1 muscarinic receptor)	M3 Activity (M3 muscarinic receptor)
COc1cc(F)c(F)c(C2CCN(C3CC4CCC(C4)C3)CC2)c1 (stereo not shown) [Compound 310]	25 to 100	< 25	< 25	< 25	+++ (activity was measured to be less than 1.0 μM)	+ (activity was measured to be greater than 5.0 μM)	+ (activity was measured to be greater than 5.0 μM)	+ (activity was measured to be greater than 5.0 μM)
COc1c(F)cc(F)cc1C1CCN(C2CC3CCC(C3)C2)CC1 (stereo not shown) [Compound 311]	25 to 100	< 25	< 25	< 25	+++ (activity was measured to be less than 1.0 μM)	+ (activity was measured to be greater than 5.0 μM)	+ (activity was measured to be greater than 5.0 μM)	+ (activity was measured to be greater than 5.0 μM)
COc1ccc(F)cc1C1(F)CCN(C2CCOCC2)CC1 [Compound 314]	25 to 100	< 25	< 25	< 25	+ (activity was measured to be greater than 5.0 μM)	+ (activity was measured to be greater than 5.0 μM)	+ (activity was measured to be greater than 5.0 μM)	+ (activity was measured to be greater than 5.0 μM)
CCOC(=O)N1C2CCC1CC(N1CCC(c3cc(-c4ccc(C#N)cc4)ccc3OC)CC1)C2 (stereo not shown) [Compound 317]	25 to 100	< 25	25 to 100	< 25	++ (activity was measured to be from 1.0 μM to 5.0 μM)	+ (activity was measured to be greater than 5.0 μM)	++ (activity was measured to be from 1.0 μM to 5.0 μM)	+ (activity was measured to be greater than 5.0 μM)
COc1ccccc1C1CCN(CC2CCCCC2)CC1 [Compound 320]	25 to 100	< 25	< 25	< 25	++ (activity was measured to be from 1.0 μM to 5.0 μM)	+ (activity was measured to be greater than 5.0 μM)	+ (activity was measured to be greater than 5.0 μM)	+ (activity was measured to be greater than 5.0 μM)
